# Data taken from patent US12679848B2, “Plasma kallikrein inhibitors” (Merck Sharp & Dohme LLC, priority 2020, dated 2026).
# Legend:
# [1] = target: human factor XIa (Homo sapiens, UniProt P03951); experiment: Factor XIa Assay; format: biochemical; details: human factor XIa 0.04 nM, substrate GPR-AFC, 30 min pre-incubation, 25° C., pH 7.4; read-out: FXIa IC50
# [2] = target: T1, Human plasma kallikrein (Homo sapiens, UniProt P03952); experiment: Plasma Kallikrein Assay; format: biochemical; details: purified Human plasma kallikrein 0.5 nM, substrate Acetyl-K-P-R-AFC, HEPES pH 7.4; read-out: PKal IC50
# T1 construct: yields a heavy chain (371 amino acids) and a light chain (248 amino acids); The active site of plasma kallikrein is contained in the light chain; purchased Enzyme Research Laboratories
# Summary of the method: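 Purified human plasma kallikrein at 0.5 nM final with substrate Acetyl-K-P-R-AFC at […], in 50 mM HEPES pH 7.4, 150 mM NaCl, 5 mM CaCl2, 0.1% PEG 8000, at rt or 37° C after enzyme-inhibitor equilibration. IC50 from four-parameter logistic fit of fluorescence rate; Ki via Cheng-Prusoff.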
# human factor XIa, sequence (P03951 388-625 limits assumed): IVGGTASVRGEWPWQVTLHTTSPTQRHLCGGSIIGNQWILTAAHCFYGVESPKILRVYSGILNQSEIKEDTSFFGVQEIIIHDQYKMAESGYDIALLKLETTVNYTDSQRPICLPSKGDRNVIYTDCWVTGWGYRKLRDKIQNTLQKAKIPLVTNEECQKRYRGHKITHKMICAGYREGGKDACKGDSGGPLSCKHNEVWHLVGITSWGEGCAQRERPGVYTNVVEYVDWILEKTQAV
# human factor XIa, sequence (P03951 19-387 partner limits assumed): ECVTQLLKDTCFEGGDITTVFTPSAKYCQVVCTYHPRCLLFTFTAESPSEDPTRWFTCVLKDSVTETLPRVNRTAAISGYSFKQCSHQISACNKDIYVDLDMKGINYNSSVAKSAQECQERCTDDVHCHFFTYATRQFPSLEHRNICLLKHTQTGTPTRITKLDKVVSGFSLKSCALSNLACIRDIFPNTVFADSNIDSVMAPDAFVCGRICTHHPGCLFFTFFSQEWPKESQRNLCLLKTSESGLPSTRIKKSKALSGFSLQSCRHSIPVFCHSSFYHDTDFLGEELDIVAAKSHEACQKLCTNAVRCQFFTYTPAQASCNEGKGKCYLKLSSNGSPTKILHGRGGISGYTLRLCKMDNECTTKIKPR
# T1 sequence (P03952 391-638 limits assumed): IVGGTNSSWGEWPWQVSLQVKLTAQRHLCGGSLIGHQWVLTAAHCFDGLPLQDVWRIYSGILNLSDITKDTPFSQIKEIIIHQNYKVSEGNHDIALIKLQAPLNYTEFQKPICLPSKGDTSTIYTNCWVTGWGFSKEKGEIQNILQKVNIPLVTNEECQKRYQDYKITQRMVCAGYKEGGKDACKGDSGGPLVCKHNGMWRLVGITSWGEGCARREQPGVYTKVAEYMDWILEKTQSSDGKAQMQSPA
# T1 sequence (P03952 20-390 partner limits assumed): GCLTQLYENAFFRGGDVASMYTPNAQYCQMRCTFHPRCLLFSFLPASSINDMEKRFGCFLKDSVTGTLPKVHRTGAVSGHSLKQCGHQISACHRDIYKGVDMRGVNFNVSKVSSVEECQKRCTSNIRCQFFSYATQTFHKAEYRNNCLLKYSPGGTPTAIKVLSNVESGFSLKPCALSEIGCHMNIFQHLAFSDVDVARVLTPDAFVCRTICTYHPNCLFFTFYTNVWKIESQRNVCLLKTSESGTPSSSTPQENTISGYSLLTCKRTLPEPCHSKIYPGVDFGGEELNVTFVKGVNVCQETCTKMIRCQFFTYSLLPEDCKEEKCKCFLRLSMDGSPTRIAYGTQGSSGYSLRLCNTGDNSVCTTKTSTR
structure (smiles),measurement,setting,value
"Nc1c(C(=O)N2CCC[C@@]3(C2)OC(=O)Nc2ccc(Cl)c(F)c23)cnn1-c1ccccc1C1CC1 [Example 95, (R)-1'-(5-Amino-1-(2-cyclopropylphenyl)-1H-pyrazole-4-carbonyl)-6-chloro-5-fluorospiro[benzo[d][1,3]oxazine-4,3'-piperidin]-2(1H)-one]",IC50,[1],0.305 µM
same,IC50,[2],0.01 µM
"Nc1c(C(=O)N2CCC[C@@]3(C2)OC(=O)Nc2ccc(Cl)c(F)c23)cnn1-c1ccccc1Oc1ccccc1 [Example 96, (R)-1'-(5-Amino-1-(2-phenoxyphenyl)-1H-pyrazole-4-carbonyl)-6-chloro-5-fluorospiro[benzo[d][1,3]oxazine-4,3'-piperidin]-2(1H)-one]",IC50,[1],1.37 µM
same,IC50,[2],0.0011 µM
"Nc1c(C(=O)N2CCC[C@@]3(C2)OC(=O)Nc2ccc(Cl)c(F)c23)cnn1-c1ccccc1OC1CCC1 [Example 97, (R)-1'-(5-Amino-1-(2-cyclobutoxyphenyl)-1H-pyrazole-4-carbonyl)-6-chloro-5-fluorospiro[benzo[d][1,3]oxazine-4,3'-piperidin]-2(1H)-one]",IC50,[1],1.29 µM
same,IC50,[2],0.008 µM
"CC1(c2ccccc2-n2ncc(C(=O)N3CCC[C@@]4(C3)OC(=O)Nc3ccc(Cl)c(F)c34)c2N)CC1 [Example 98, (R)-1'-(5-Amino-1-(2-(1-methylcyclopropyl)phenyl)-1H-pyrazole-4-carbonyl)-6-chloro-5-fluorospiro[benzo[d][1,3]oxazine-4,3'-piperidin]-2(1H)-one]",IC50,[1],0.219 µM
same,IC50,[2],0.0084 µM
"Nc1c(C(=O)N2CCC[C@@]3(C2)OC(=O)Nc2ccc(Cl)c(F)c23)cnn1-c1ccccc1OCC(F)(F)F [Example 99, (R)-1'-(5-Amino-1-(2-(2,2,2-trifluoroethoxy)phenyl)-1H-pyrazole-4-carbonyl)-6-chloro-5-fluorospiro[benzo[d][1,3]oxazine-4,3'-piperidin]-2(1H)-one]",IC50,[1],1.08 µM
same,IC50,[2],0.0133 µM
"COc1cc(F)ccc1-n1ncc(C(=O)N2CCC[C@@]3(C2)OC(=O)Nc2ccc(Cl)c(F)c23)c1N [Example 100, (R)-1'-(5-Amino-1-(4-fluoro-2-methoxyphenyl)-1H-pyrazole-4-carbonyl)-6-chloro-5-fluorospiro[benzo[d][1,3]oxazine-4,3'-piperidin]-2(1H)-one]",IC50,[1],0.375 µM
same,IC50,[2],0.009 µM
"COc1c(F)cc(F)cc1-n1ncc(C(=O)N2CCC[C@@]3(C2)OC(=O)Nc2ccc(Cl)c(F)c23)c1N [Example 101, (R)-1'-(5-Amino-1-(3,5-difluoro-2-methoxyphenyl)-1H-pyrazole-4-carbonyl)-6-chloro-5-fluorospiro[benzo[d][1,3]oxazine-4,3'-piperidin]-2(1H)-one]",IC50,[1],1.31 µM
same,IC50,[2],0.0306 µM
"Nc1c(C(=O)N2CCC[C@@]3(C2)OC(=O)Nc2ccc(Cl)c(F)c23)cnn1-c1c(Cl)cncc1Cl [Example 102, (R)-1'-(5-Amino-1-(3,5-dichloropyridin-4-y1)-1H-pyrazole-4-carbonyl)-6-chloro-5-fluorospiro[benzo[d][1,3]oxazine-4,3'-piperidin]-2(1H)-one]",IC50,[1],0.012 µM
same,IC50,[2],0.0038 µM
"Nc1c(C(=O)N2CCC[C@@]3(C2)OC(=O)Nc2ccc(Cl)c(F)c23)cnn1-c1ccnc2ccccc12 [Example 103, (R)-1'-(5-Amino-1-(quinolin-4-yl)-1H-pyrazole-4-carbonyl)-6-chloro-5-fluorospiro[benzo[d][1,3]oxazine-4,3'-piperidin]-2(1H)-one]",IC50,[1],0.61 µM
same,IC50,[2],0.0101 µM
"Nc1c(C(=O)N2CCC[C@@]3(C2)OC(=O)Nc2ccc(Cl)c(F)c23)cnn1-c1ccnc2c(F)cccc12 [Example 104, (R)-1'-(5-Amino-1-(8-fluoroquinolin-4-y1)-1H-pyrazole-4-carbonyl)-6-chloro-5-fluorospiro[benzo[d][1,3]oxazine-4,3'-piperidin]-2(1H)-one]",IC50,[1],0.562 µM
same,IC50,[2],0.0095 µM
"Cc1cnccc1-n1ncc(C(=O)N2CCC[C@@]3(C2)OC(=O)Nc2ccc(Cl)c(F)c23)c1N [Example 105, (R)-1'-(5-Amino-1-(3-methylpyridin-4-y1)-1H-pyrazole-4-carbony1)-6-chloro-5-fluorospiro[benzo[d][1,3]oxazine-4,3'-piperidin]-2(1H)-one]",IC50,[1],0.421 µM
same,IC50,[2],0.0132 µM
"Nc1c(C(=O)N2CCC[C@@]3(C2)OC(=O)Nc2ccc(Cl)c(F)c23)cnn1-c1cc(F)ccc1OC(F)F [Example 106, (R)-1'-(5-Amino-1-(2-(difluoromethoxy)-5-fluorophenyl)-1H-pyrazole-4-carbonyl)-6-chloro-5-fluorospiro[benzo[d][1,3]oxazine-4,3'-piperidin]-2(1H)-one]",IC50,[1],1.07 µM
same,IC50,[2],0.0348 µM
"Nc1c(C(=O)N2CCC[C@@]3(C2)OC(=O)Nc2ccc(Cl)c(F)c23)cnn1-c1cccc(F)c1OC(F)F [Example 107, (R)-1'-(5-Amino-1-(2-(difluoromethoxy)-3-fluorophenyl)-1H-pyrazole-4-carbonyl)-6-chloro-5-fluorospiro[benzo[d][1,3]oxazine-4,3'-piperidin]-2(1H)-one]",IC50,[1],0.461 µM
same,IC50,[2],0.0152 µM
"COc1cccnc1-n1ncc(C(=O)N2CCC[C@@]3(C2)OC(=O)Nc2ccc(Cl)c(F)c23)c1N [Example 108, (R)-1'-(5-Amino-1-(3-methoxypyridin-2-y1)-1H-pyrazole-4-carbonyl)-6-chloro-5-fluorospiro[benzo[d][1,3]oxazine-4,3'-piperidin]-2(1H)-one]",IC50,[1],1.69 µM
same,IC50,[2],0.0396 µM
"Cn1ncc(C(=O)N2CCC[C@@]3(C2)OC(=O)Nc2ccc(Cl)c(F)c23)c1N [Example 109, (R)-1'-(5-Amino-1-methyl-1H-pyrazole-4-carbonyl)-6-chloro-5-fluorospiro[benzo[d][1,3]oxazine-4,3'-piperidin]-2(1H)-one]",IC50,[1],> 10 µM
same,IC50,[2],0.338 µM
"Nc1c(C(=O)N2CCC[C@@]3(C2)OC(=O)Nc2ccc(Cl)c(F)c23)cnn1-c1cccc(Cl)c1 [Example 110, (R)-1'-(5-Amino-1-(3-chlorophenyl)-1H-pyrazole-4-carbonyl)-6-chloro-5-fluorospiro[benzo[d][1,3]oxazine-4,3'-piperidin]-2(1H)-one]",IC50,[1],> 10 µM
same,IC50,[2],0.0661 µM
"Cc1ccc(-n2ncc(C(=O)N3CCC[C@@]4(C3)OC(=O)Nc3ccc(Cl)c(F)c34)c2N)cc1 [Example 111, (R)-1'-(5-Amino-1-(p-toly1)-1H-pyrazole-4-carbonyl)-6-chloro-5-fluorospiro[benzo[d][1,3]oxazine-4,3'-piperidin]-2(1H)-one]",IC50,[1],2.99 µM
same,IC50,[2],0.0803 µM
"O=C1Nc2ccc(Cl)c(F)c2[C@@]2(CCCN(C(=O)c3cnn(Cc4ccc(F)cc4)c3O)C2)O1 [Example 132, (R)-6-Chloro-5-fluoro-1′-(1-(4-fluorobenzyl)-5-hydroxy-1H-pyrazole-4-carbonyl)spiro[benzo[d][1,3]oxazine-4,3′-piperidin]-2(1H)-one]",IC50,[1],≥ 10 µM
same,IC50,[2],0.0178 µM
"Nc1c(C(=O)N2CCC[C@@]3(C2)OC(=O)Nc2ccc(Cl)c(F)c23)nnn1Cc1ccccc1 [Example 133, (R)-1′-(5-Amino-1-benzyl-1H-1,2,3-triazole-4-carbonyl)-6-chloro-5-fluorospiro[benzo[d][1,3]oxazine-4,3′-piperidin]-2(1H)-one]",IC50,[1],0.328 µM
same,IC50,[2],0.19 µM
